Laboratory results: patent US8410112B2, “Compounds useful as inhibitors of ATR kinase” (Vertex Pharmaceuticals Incorporated, priority 2008, dated 2013)

Target: T1, full-length ATR (Homo sapiens, UniProt Q13535)
T1 construct: in the presence of 5 nM full-length ATR
Experiment: ATR Inhibition Assay (radioactive-phosphate incorporation)
Assay type: biochemical
Conditions: Ki(app); 5 nM full-length ATR, 10 μM ATP, 800 μM target peptide, 25° C.
Procedure: Test compounds were screened for their ability to inhibit ATR kinase using a radioactive-phosphate incorporation assay. Assays were carried out in a mixture of 50 mM
Tris/HCl (pH 7.5), 10 mM MgCl2 and 1 mM DTT. Final substrate concentrations were 10 μM [γ-33P]ATP (3 mCi 33 P ATP/mmol ATP, Perkin Elmer) and 800 μM target peptide ([…]). Assays were carried out at 25° C. in the presence of 5 nM full-length ATR. An assay stock buffer solution was prepared containing all of the reagents listed above, with the exception of ATP and the test compound of interest. […] The plate was pre-incubated for 10 minutes at 25° C. and the reaction initiated by addition of 15 μL [γ-33P]ATP (final concentration 10 μM).
The reaction was stopped after […] by the addition of 30 μL 0.1M phosphoric acid containing 2 mM ATP. A multiscreen phosphocellulose filter 96-well plate (Millipore, Cat no. MAPHN0B50) was pretreated with 100 μL 0.2M phosphoric acid prior to the addition of 45 μL of the stopped assay mixture. The plate was washed with 5×200 μL 0.2M phosphoric acid.
After removing mean background values for all of the data points, Ki(app) data were calculated from non-linear regression analysis of the initial rate data using the Prism software package (GraphPad Prism version 3.0cx for Macintosh, GraphPad Software, San Diego Calif., USA).

T1 sequence (Q13535 whole entry): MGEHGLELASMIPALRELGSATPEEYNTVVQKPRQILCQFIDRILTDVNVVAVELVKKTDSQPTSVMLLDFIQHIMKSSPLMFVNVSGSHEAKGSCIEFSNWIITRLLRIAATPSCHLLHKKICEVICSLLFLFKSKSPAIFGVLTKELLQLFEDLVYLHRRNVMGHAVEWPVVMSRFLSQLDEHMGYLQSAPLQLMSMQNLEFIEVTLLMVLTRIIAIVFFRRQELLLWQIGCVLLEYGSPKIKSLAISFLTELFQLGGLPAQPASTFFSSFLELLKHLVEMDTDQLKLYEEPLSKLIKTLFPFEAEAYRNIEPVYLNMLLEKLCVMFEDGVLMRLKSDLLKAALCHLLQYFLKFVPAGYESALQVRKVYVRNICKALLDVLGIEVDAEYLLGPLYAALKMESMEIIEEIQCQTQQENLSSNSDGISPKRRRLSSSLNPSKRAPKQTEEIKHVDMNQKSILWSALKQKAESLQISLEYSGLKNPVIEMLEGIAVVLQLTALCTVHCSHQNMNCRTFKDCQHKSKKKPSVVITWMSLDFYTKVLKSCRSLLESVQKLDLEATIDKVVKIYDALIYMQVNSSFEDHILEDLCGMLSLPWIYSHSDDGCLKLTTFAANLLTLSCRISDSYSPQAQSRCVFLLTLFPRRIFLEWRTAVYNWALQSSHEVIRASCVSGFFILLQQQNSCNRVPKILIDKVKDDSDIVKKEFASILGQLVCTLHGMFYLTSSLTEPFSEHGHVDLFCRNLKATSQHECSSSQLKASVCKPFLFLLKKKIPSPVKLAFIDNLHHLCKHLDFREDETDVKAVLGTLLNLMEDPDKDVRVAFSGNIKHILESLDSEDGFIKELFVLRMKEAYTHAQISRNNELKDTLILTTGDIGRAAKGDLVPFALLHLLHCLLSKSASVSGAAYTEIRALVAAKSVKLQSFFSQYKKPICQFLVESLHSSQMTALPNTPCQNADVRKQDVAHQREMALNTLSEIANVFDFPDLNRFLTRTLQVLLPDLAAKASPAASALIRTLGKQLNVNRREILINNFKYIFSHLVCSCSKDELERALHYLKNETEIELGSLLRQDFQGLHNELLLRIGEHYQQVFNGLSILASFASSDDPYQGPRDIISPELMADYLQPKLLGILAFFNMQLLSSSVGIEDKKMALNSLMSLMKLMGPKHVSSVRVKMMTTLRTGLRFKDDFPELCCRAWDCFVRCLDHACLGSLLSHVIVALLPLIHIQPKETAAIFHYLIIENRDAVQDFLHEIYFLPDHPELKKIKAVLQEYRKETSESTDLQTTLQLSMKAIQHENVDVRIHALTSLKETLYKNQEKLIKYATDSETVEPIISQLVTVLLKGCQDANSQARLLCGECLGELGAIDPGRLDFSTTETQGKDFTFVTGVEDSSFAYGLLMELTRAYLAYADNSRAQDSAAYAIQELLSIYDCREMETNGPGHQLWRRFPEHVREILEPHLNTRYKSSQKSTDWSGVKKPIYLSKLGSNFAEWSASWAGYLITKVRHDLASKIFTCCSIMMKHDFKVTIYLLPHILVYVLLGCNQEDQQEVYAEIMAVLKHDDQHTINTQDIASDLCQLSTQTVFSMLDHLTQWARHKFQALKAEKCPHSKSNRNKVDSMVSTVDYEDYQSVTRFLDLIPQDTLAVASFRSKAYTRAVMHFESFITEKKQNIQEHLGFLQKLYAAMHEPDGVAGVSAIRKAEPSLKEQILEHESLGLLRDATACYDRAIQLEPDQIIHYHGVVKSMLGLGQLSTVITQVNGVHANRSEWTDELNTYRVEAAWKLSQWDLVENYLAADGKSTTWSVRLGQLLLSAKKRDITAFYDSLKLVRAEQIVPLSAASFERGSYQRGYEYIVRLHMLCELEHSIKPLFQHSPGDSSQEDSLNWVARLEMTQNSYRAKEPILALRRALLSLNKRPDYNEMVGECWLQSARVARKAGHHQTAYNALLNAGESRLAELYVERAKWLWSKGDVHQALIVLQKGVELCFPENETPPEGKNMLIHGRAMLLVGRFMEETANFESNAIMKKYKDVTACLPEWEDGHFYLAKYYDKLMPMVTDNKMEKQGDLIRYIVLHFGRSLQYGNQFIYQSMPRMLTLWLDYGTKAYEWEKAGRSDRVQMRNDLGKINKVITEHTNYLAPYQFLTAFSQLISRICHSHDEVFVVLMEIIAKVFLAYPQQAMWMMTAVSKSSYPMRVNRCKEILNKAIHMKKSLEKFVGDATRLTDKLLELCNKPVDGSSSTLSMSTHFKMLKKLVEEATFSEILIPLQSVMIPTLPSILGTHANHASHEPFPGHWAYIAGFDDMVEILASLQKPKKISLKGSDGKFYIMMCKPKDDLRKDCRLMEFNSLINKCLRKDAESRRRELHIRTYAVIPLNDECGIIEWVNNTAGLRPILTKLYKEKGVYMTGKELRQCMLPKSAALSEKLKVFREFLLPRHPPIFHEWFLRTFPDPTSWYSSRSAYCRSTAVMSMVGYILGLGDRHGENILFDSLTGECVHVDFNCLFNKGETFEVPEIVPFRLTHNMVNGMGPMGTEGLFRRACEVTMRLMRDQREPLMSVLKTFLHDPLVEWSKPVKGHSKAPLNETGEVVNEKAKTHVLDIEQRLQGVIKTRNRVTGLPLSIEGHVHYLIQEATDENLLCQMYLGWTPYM

SMILES | Ki [µM]
Nc1ncc(N2C[C@@H]3CCC(O)[C@@H]3C2)nc1-c1nnc(-c2ccccc2)o1 (stereo in doubt) [Compound I-318, (3aR,6aS)-2-[5-Amino-6-(5-phenyl-1,3,4-oxadiazol-2-yl)pyrazin-2-yl]-3,3a,4,5,6,6a-hexahydro-1H-cyclopenta[c]pyrrol-6-ol] | < 0.1
CC(=O)N1CCCN(c2cnc(N)c(-c3nc4ccc(C)cc4[nH]3)n2)CC1 [Compound I-1, 1-(4-(5-amino-6-(6-methyl-1H-benzo[d]imidazol-2-yl)pyrazin-2-yl)-1,4-diazepan-1-yl)ethanone] | 1 to 10
Cc1ccc2nc(-c3nc(N4CCC(CO)CC4)cnc3N)[nH]c2c1 [Compound I-2, (1-(5-amino-6-(6-methyl-1H-benzo[d]imidazol-2-yl)pyrazin-2-yl)piperidin-4-yl)methanol] | 1 to 10
Cc1ccc2nc(-c3nc(N4CCOCC4)cnc3N)[nH]c2c1 [Compound I-3, 3-(6-methyl-1H-benzo[d]imidazol-2-yl)-5-morpholinopyrazin-2-amine] | 0.1 to 1
CC(=O)N[C@H]1CCN(c2cnc(N)c(-c3nc4ccc(C)cc4[nH]3)n2)C1 [Compound I-4, (S)-N-(1-(5-amino-6-(6-methyl-1H-benzo[d]imidazol-2-yl)pyrazin-2-yl)pyrrolidin-3-yl)ethanamide] | 0.1 to 1
Cc1ccc2nc(-c3nc(N4CCC(O)CC4)cnc3N)[nH]c2c1 [Compound I-5, 1-(5-amino-6-(6-methyl-1H-benzo[d]imidazol-2-yl)pyrazin-2-yl)piperidin-4-ol] | 1 to 10
CCS(=O)(=O)N1CCN(c2cnc(N)c(-c3nc4ccc(C)cc4[nH]3)n2)CC1 [Compound I-6, 5-(4-(ethylsulfonyl)piperazin-1-yl)-3-(6-methyl-1H-benzo[d]imidazol-2-yl)pyrazin-2-amine] | 0.1 to 1
Cc1ccc2nc(-c3nc(N4CCNC(=O)C4)cnc3N)[nH]c2c1 [Compound I-7, 4-(5-amino-6-(6-methyl-1H-benzo[d]imidazol-2-yl)pyrazin-2-yl)piperazin-2-one] | 0.1 to 1
Cc1ccc2nc(-c3nc(N4CCSCC4)cnc3N)[nH]c2c1 [Compound I-8, 3-(6-methyl-1H-benzo[d]imidazol-2-yl)-5-thiomorpholinopyrazin-2-amine] | 0.1 to 1
CC(=O)N[C@@H]1CCN(c2cnc(N)c(-c3nc4ccc(C)cc4[nH]3)n2)C1 [Compound I-9, (R)-N-(1-(5-amino-6-(6-methyl-1H-benzo[d]imidazol-2-yl)pyrazin-2-yl)pyrrolidin-3-yl)ethanamide] | 1 to 10
CC(=O)N1CCN(c2cnc(N)c(-c3nc4ccc(C)cc4[nH]3)n2)CC1 [Compound I-10, 1-(4-(5-amino-6-(6-methyl-1H-benzo[d]imidazol-2-yl)pyrazin-2-yl)piperazin-1-yl)ethanone] | 0.1 to 1
Cc1ccc2nc(-c3nc(N4CCC(=O)CC4)cnc3N)[nH]c2c1 [Compound I-11, 1-(5-amino-6-(6-methyl-1H-benzo[d]imidazol-2-yl)pyrazin-2-yl)piperidin-4-one] | 1 to 10
COC1CCN(c2cnc(N)c(-c3nc4ccc(C)cc4[nH]3)n2)CC1 [Compound I-12, 5-(4-methoxypiperidin-1-yl)-3-(6-methyl-1H-benzo[d]imidazol-2-yl)pyrazin-2-amine] | 1 to 10
CNC(=O)C1CCN(c2cnc(N)c(-c3nc4ccc(C)cc4[nH]3)n2)CC1 [Compound I-13, 1-(5-amino-6-(6-methyl-1H-benzo[d]imidazol-2-yl)pyrazin-2-yl)-N-methylpiperidine-4-carboxamide] | 1 to 10
Cc1ccc2nc(-c3nc(N4CCC(C(N)=O)CC4)cnc3N)[nH]c2c1 [Compound I-14, 1-(5-amino-6-(6-methyl-1H-benzo[d]imidazol-2-yl)pyrazin-2-yl)piperidine-4-carboxamide] | 1 to 10
CCS(=O)(=O)N1CCN(c2cnc(N)c(-c3nc4ccccc4n3C)n2)CC1 [Compound I-15, 5-(4-(ethylsulfonyl)piperazin-1-yl)-3-(1-methyl-1H-benzo[d]imidazol-2-yl)pyrazin-2-amine] | 0.1 to 1
CCS(=O)(=O)N1CCN(c2cnc(N)c(-c3nc4ccccc4s3)n2)CC1 [Compound I-17, 3-(benzo[d]thiazol-2-yl)-5-(4-(ethylsulfonyl)piperazin-1-yl)pyrazin-2-amine] | 0.1 to 1
CCS(=O)(=O)N1CCN(c2cnc(N)c(-c3nnc(-c4ccccc4)o3)n2)CC1 [Compound I-18, 5-(4-(ethylsulfonyl)piperazin-1-yl)-3-(5-phenyl-1,3,4-oxadiazol-2-yl)pyrazin-2-amine] | < 0.1
CCS(=O)(=O)N1CCN(c2cnc(N)c(-c3nc(-c4ccccc4)no3)n2)CC1 [Compound I-19, 5-(4-(ethylsulfonyl)piperazin-1-yl)-3-(3-phenyl-1,2,4-oxadiazol-5-yl)pyrazin-2-amine] | 0.1 to 1

SMILES | Ki [µM]
CCS(=O)(=O)N1CCN(c2cnc(N)c(C(=O)Nc3ccccc3)n2)CC1 [Compound I-20, 3-amino-6-(4-(ethylsulfonyl)piperazin-1-yl)-N-phenylpyrazine-2-carboxamide] | 0.1 to 1
Cc1ccc2nc(-c3nc(N4CCS(=O)(=O)CC4)cnc3N)[nH]c2c1 [Compound I-21, 5-(1,1-dioxo-1,4-thiazinan-4-yl)-3-(6-methyl-1H-benzimidazol-2-yl)pyrazin-2-amine] | 1 to 10
Cc1ccc2nc(-c3nc(C4=CCC5(CC4)OCCO5)cnc3N)[nH]c2c1 [Compound I-22, 3-(6-methyl-1H-benzo[d]imidazol-2-yl)-5-(1,4-dioxaspiro[4.5]dec-7-en-8-yl)pyrazin-2-amine] | 0.1 to 1
Cc1ccc2nc(-c3nc(C4=CCN(S(=O)(=O)N(C)C)CC4)cnc3N)[nH]c2c1 [Compound I-23, 4-(5-amino-6-(6-methyl-1H-benzo[d]imidazol-2-yl)pyrazin-2-yl)-N,N-dimethyl-5,6-dihydropyridine-1(2H)-sulfonamide] | < 0.1
CCS(=O)(=O)N1CCN(c2cnc(N)c(-c3cc4ccccc4o3)n2)CC1 [Compound I-29, 3-(benzofuran-2-yl)-5-(4-(ethylsulfonyl)piperazin-1-yl)pyrazin-2-amine] | 0.1 to 1
Cc1ccc2nc(-c3nc(N4CCN(c5ccccc5)CC4)cnc3N)[nH]c2c1 [Compound I-30, 3-(6-methyl-1H-benzo[d]imidazol-2-yl)-5-(4-phenylpiperazin-1-yl)pyrazin-2-amine] | 0.1 to 1
Cc1ccc2nc(-c3nc(N4CCC(C(F)(F)F)CC4)cnc3N)[nH]c2c1 [Compound I-31, 3-(6-methyl-1H-benzo[d]imidazol-2-yl)-5-(4-(trifluoromethyl)piperidin-1-yl)pyrazin-2-amine] | 1 to 10
CCOC(=O)N1CCN(c2cnc(N)c(-c3nc4ccc(C)cc4[nH]3)n2)CC1 [Compound I-32, ethyl 4-(5-amino-6-(6-methyl-1H-benzo[d]imidazol-2-yl)pyrazin-2-yl)piperazine-1-carboxylate] | 1 to 10
Cc1ccc2nc(-c3nc(N4CCC5(CC4)OCCO5)cnc3N)[nH]c2c1 [Compound I-33, 3-(6-methyl-1H-benzo[d]imidazol-2-yl)-5-(1,4-dioxa-8-azaspiro[4.5]decan-8-yl)pyrazin-2-amine] | 1 to 10
Cc1ccc2nc(-c3nc(N4CCC(C#N)CC4)cnc3N)[nH]c2c1 [Compound I-34, 1-(5-amino-6-(6-methyl-1H-benzo[d]imidazol-2-yl)pyrazin-2-yl)piperidine-4-carbonitrile] | 1 to 10
Cc1ccc2nc(-c3nc(N4CCN(c5ncccn5)CC4)cnc3N)[nH]c2c1 [Compound I-35, 3-(6-methyl-1H-benzo[d]imidazol-2-yl)-5-(4-(pyrimidin-2-yl)piperazin-1-yl)pyrazin-2-amine] | 1 to 10
CCS(=O)(=O)N1CCN(c2cnc(N)c(-c3ncc(-c4ccccc4)o3)n2)CC1 [Compound I-36, 5-(4-(ethylsulfonyl)piperazin-1-yl)-3-(5-phenyloxazol-2-yl)pyrazin-2-amine] | 0.1 to 1
Nc1ncc(N2CCNCC2)nc1-c1nnc(-c2ccccc2)o1 [Compound I-37, 3-(5-phenyl-1,3,4-oxadiazol-2-yl)-5-(piperazin-1-yl)pyrazin-2-amine] | 1 to 10
CCS(=O)(=O)N1CCN(c2cnc(N)c(-c3noc(C)n3)n2)CC1 [Compound I-38, 5-(4-(ethylsulfonyl)piperazin-1-yl)-3-(5-methyl-1,2,4-oxadiazol-3-yl)pyrazin-2-amine] | 1 to 10
Nc1ncc(N2CC[C@H](N)C2)nc1-c1nc2ccccc2[nH]1 [Compound I-39, (S)-5-(3-aminopyrrolidin-1-yl)-3-(1H-benzo[d]imidazol-2-yl)pyrazin-2-amine] | 1 to 10
Nc1ncc(N2CCNCC2)nc1-c1nc2ccccc2[nH]1 [Compound I-40, 3-(1H-benzo[d]imidazol-2-yl)-5-(piperazin-1-yl)pyrazin-2-amine] | 1 to 10
Nc1ncc(C2=CCNCC2)nc1-c1nnc(-c2ccccc2)o1 [Compound I-41, 3-(5-phenyl-1,3,4-oxadiazol-2-yl)-5-(1,2,3,6-tetrahydropyridin-4-yl)pyrazin-2-amine] | 0.1 to 1
Nc1ncc(N2CCNCC2)nc1C(=O)Nc1ccccn1 [Compound I-42, 3-amino-6-(piperazin-1-yl)-N-(pyridin-2-yl)pyrazine-2-carboxamide] | 1 to 10
